Laboratory results as given in the supplement of paper PMC10307832.

Columns and labels:
Experiment in all cases: relative viability (nuclei count vs DMSO), 5 days (fraction); higher = more cells survive
LU99A = test system: LU99A
How it was run: (§1)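 Relative viability is defined as nuclei in treated wells over nuclei in vehicle wells. Duplicate plates were run and medians reported. Lung cancer cell lines in 1536-well plates were dosed by pin tool one day after seeding, with one drug or with a fixed anchor-drug dose plus five library-drug doses (not always all listed) in √10 steps, and nuclei were counted after 5 days.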

NCI-H1993 = test system: NCI-H1993
How it was run: as §1

LC-2-ad = test system: LC-2-ad
How it was run: as §1

NCI-H2085 = test system: NCI-H2085
How it was run: as §1

UMC-11 = test system: UMC-11
How it was run: as §1

NCI-H2023 = test system: NCI-H2023
How it was run: as §1

NCI-H1651 = test system: NCI-H1651
How it was run: as §1

NCI-H2126 = test system: NCI-H2126
How it was run: as §1

ABC-1 = test system: ABC-1
How it was run: as §1

EPLC-272H = test system: EPLC-272H
How it was run: as §1

COR-L23 = test system: COR-L23
How it was run: as §1

NCI-H358 = test system: NCI-H358
How it was run: as §1

NCI-H838 = test system: NCI-H838
How it was run: as §1

NCI-H1915 = test system: NCI-H1915
How it was run: as §1

NCI-H650 = test system: NCI-H650
How it was run: as §1

SW 1573 = test system: SW 1573
How it was run: as §1

HARA = test system: HARA
How it was run: as §1

PC-14 = test system: PC-14
How it was run: as §1

HCC-78 = test system: HCC-78
How it was run: as §1

HCC-15 = test system: HCC-15
How it was run: as §1

NCI-H2347 = test system: NCI-H2347
How it was run: as §1

NCI-H1355 = test system: NCI-H1355
How it was run: as §1

Work on `Oc1nc(-c2ccc(C(F)(F)F)cc2)nc2c1CSCC2` [XAV939] + Cc1nc(NC(=O)N2CCC[C@H]2C(N)=O)sc1-c1ccnc(C(C)(C)C(F)(F)F)c1 [Alpelisib] (partner 2 µM) yielded a relative viability (LU99A; first compound 0.08 µM) of 0.501, a relative viability (LU99A; first compound 0.253 µM) of 0.579 and a relative viability (LU99A; first compound 0.8 µM) of 0.494. It also gave a relative viability (LU99A; first compound 2.53 µM) of 0.4, a relative viability (NCI-H1993; first compound 0.8 µM) of 0.635 and a relative viability (NCI-H1993; first compound 2.53 µM) of 0.633. It also gave a relative viability (LC-2-ad; first compound 0.08 µM) of 0.901, a relative viability (LC-2-ad; first compound 0.253 µM) of 0.711 and a relative viability (LC-2-ad; first compound 0.8 µM) of 0.848. It also gave a relative viability (LC-2-ad; first compound 2.53 µM) of 0.804, a relative viability (NCI-H2085; first compound 0.08 µM) of 0.993 and a relative viability (NCI-H2085; first compound 0.253 µM) of 0.898. For the same compound, the relative viability (NCI-H2085; first compound 0.8 µM) was 0.814, the relative viability (NCI-H2085; first compound 2.53 µM) was 0.737 and the relative viability (UMC-11; first compound 0.08 µM) was 1.2. It also gave a relative viability (UMC-11; first compound 0.8 µM) of 0.971, a relative viability (UMC-11; first compound 2.53 µM) of 0.64 and a relative viability (NCI-H2023; first compound 0.08 µM) of 0.572. The relative viability (NCI-H2023; first compound 0.253 µM) was 0.524, the relative viability (NCI-H2023; first compound 0.8 µM) was 0.525 and the relative viability (NCI-H2023; first compound 2.53 µM) was 0.412. The relative viability (NCI-H1651; first compound 0.08 µM) was 0.979, the relative viability (NCI-H1651; first compound 0.253 µM) was 0.841 and the relative viability (NCI-H1651; first compound 0.8 µM) was 0.978. The relative viability (NCI-H1651; first compound 2.53 µM) was 0.891, the relative viability (NCI-H2126; first compound 0.08 µM) was 0.748 and the relative viability (NCI-H2126; first compound 0.253 µM) was 0.661. For the same compound, the relative viability (NCI-H2126; first compound 0.8 µM) was 0.664, the relative viability (NCI-H2126; first compound 2.53 µM) was 0.563 and the relative viability (ABC-1; first compound 0.08 µM) was 1.14. The relative viability (ABC-1; first compound 0.253 µM) was 0.811, the relative viability (ABC-1; first compound 0.8 µM) was 0.965 and the relative viability (ABC-1; first compound 2.53 µM) was 0.428. For the same compound, the relative viability (EPLC-272H; first compound 0.08 µM) was 0.958, the relative viability (EPLC-272H; first compound 0.253 µM) was 0.863 and the relative viability (EPLC-272H; first compound 0.8 µM) was 0.908. For the same compound, the relative viability (EPLC-272H; first compound 2.53 µM) was 0.889, the relative viability (COR-L23; first compound 0.08 µM) was 1 and the relative viability (COR-L23; first compound 0.253 µM) was 0.73. It also gave a relative viability (COR-L23; first compound 0.8 µM) of 0.772, a relative viability (COR-L23; first compound 2.53 µM) of 0.576 and a relative viability (NCI-H358; first compound 0.08 µM) of 0.815. The relative viability (NCI-H358; first compound 0.253 µM) was 0.671, the relative viability (NCI-H358; first compound 0.8 µM) was 0.915 and the relative viability (NCI-H358; first compound 2.53 µM) was 0.591. The relative viability (NCI-H838; first compound 0.08 µM) was 1.08, the relative viability (NCI-H838; first compound 0.253 µM) was 0.849 and the relative viability (NCI-H838; first compound 0.8 µM) was 0.909. The relative viability (NCI-H838; first compound 2.53 µM) was 0.604, the relative viability (NCI-H1915; first compound 0.08 µM) was 1.08 and the relative viability (NCI-H1915; first compound 0.253 µM) was 1.07. It also gave a relative viability (NCI-H1915; first compound 0.8 µM) of 1.03, a relative viability (NCI-H1915; first compound 2.53 µM) of 1.08 and a relative viability (NCI-H650; first compound 0.08 µM) of 1.3. The relative viability (NCI-H650; first compound 0.253 µM) was 0.959, the relative viability (NCI-H650; first compound 0.8 µM) was 1.15 and the relative viability (NCI-H650; first compound 2.53 µM) was 0.864. For the same compound, the relative viability (SW 1573; first compound 0.08 µM) was 0.712, the relative viability (SW 1573; first compound 0.253 µM) was 0.552 and the relative viability (SW 1573; first compound 0.8 µM) was 0.515. For the same compound, the relative viability (SW 1573; first compound 2.53 µM) was 0.464, the relative viability (HARA; first compound 0.08 µM) was 1.02 and the relative viability (HARA; first compound 0.253 µM) was 0.643. For the same compound, the relative viability (HARA; first compound 0.8 µM) was 0.842, the relative viability (HARA; first compound 2.53 µM) was 0.709 and the relative viability (PC-14; first compound 0.08 µM) was 1.03. It also gave a relative viability (PC-14; first compound 0.253 µM) of 0.829, a relative viability (PC-14; first compound 0.8 µM) of 0.906 and a relative viability (PC-14; first compound 2.53 µM) of 0.796. It also gave a relative viability (HCC-78; first compound 0.08 µM) of 0.35, a relative viability (HCC-78; first compound 0.253 µM) of 0.248 and a relative viability (HCC-78; first compound 0.8 µM) of 0.375. The relative viability (HCC-78; first compound 2.53 µM) was 0.273, the relative viability (HCC-15; first compound 0.08 µM) was 1 and the relative viability (HCC-15; first compound 0.253 µM) was 0.939. The relative viability (HCC-15; first compound 0.8 µM) was 0.925, the relative viability (HCC-15; first compound 2.53 µM) was 0.946 and the relative viability (NCI-H2347; first compound 0.08 µM) was 1.08. It also gave a relative viability (NCI-H2347; first compound 0.253 µM) of 0.97, a relative viability (NCI-H2347; first compound 0.8 µM) of 1.05 and a relative viability (NCI-H2347; first compound 2.53 µM) of 0.926. For the same compound, the relative viability (NCI-H1355; first compound 0.08 µM) was 0.78, the relative viability (NCI-H1355; first compound 0.253 µM) was 0.654 and the relative viability (NCI-H1355; first compound 0.8 µM) was 0.75. It also gave a relative viability (NCI-H1355; first compound 2.53 µM) of 0.489.
